Laboratory results as given in US6784167B2, “17-beta-hydroxysteroid dehydrogenase-II inhibitors” (Bayer Pharmaceuticals Corporation, priority 2000, dated 2004).
Where two headings read alike, the source gives them in different places.

Columns and labels:
[1] = biological target: T1, 17-Beta HSD II Enzyme (Homo sapiens, UniProt P37059); assay: Primary assay: inhibition of 17-Beta HSD II enzyme (estradiol/NAD, PMS:MTS colorimetric readout at 490 nm); assay type: biochemical; conditions: Table 7, baculovirus-expressed recombinant HSD II, estradiol substrate
T1 construct: made in house; host or cells: insect cells (baculovirus)
T1 sequence (P37059 1-387): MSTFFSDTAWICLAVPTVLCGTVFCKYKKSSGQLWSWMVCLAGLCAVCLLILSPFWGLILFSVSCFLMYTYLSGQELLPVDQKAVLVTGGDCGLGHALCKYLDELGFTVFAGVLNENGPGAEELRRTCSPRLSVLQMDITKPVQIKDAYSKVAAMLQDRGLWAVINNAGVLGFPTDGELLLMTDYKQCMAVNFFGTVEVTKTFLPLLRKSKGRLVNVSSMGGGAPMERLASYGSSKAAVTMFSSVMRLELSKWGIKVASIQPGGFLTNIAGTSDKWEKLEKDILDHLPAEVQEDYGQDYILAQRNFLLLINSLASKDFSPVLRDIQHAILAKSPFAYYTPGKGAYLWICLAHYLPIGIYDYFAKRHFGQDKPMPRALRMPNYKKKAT
Experimental: HSD II protein purification: The method for purification of baculovirus-expressed HSD II was standardized as follows. The insect cell pellet containing recombinant HSD II was lysed in 2.5 volumes of lysis buffer (40 mM Tris, pH 7.5, 1 mM EDTA, 2 mM DTT, 10 uM NAD) containing 500 uM AEBSF, 10 ug/ml aprotinin, 1 uM pepstatin A, and 100 uM leupeptin. The pellet was nutated for 30 min in this buffer. Subsequently, the pellet was homogenized with 15 strokes using a glass and teflon potter. The volume was doubled with a 2× sucrose/NaCl solution (500 mM sucrose, 300 mM NaCl in lysis buffer). After centrifugation at 10,000×g for 30 min, the supernatant was decanted and stored at −20° C. The pellet was resuspended in 2.5 volumes of lysis buffer containing 250 mM sucrose and 150 mM NaCl. Homogenization was repeated (15 strokes) and the suspension was centrifuged again and the decanted supernatant was stored at −20° C. The pellet was resuspended with 2 times the original pellet volume in lysis buffer containing 150 mM NaCl and 1% Triton X-100. The suspension was nutated for 20 min and then homogenized with 5 strokes. Subsequently, the suspension was centrifuged at 30,000×g for 1 h and supernatant was decanted and poured into a chromatographic column. Sephadex G-25 (fine) was added in small amounts, allowing approximately 15 min after each addition for complete swelling. Sephadex addition was continued until all liquid was absorbed. The protein was eluted with 1 void volume of lysis buffer and eluate monitored at 280 nm optical density. The chromatographic procedure was repeated and an equal volume of glycerol was added to the final eluate.
Primary assay: After titration, the HSD II prep, generated with the standard protocol, was diluted to the appropriate concentration (generally 1/15 dilution). 55 μl of assay buffer (50 mM Hepes, pH 8.0) was added to all wells of a 96 well plate. 5 μl of 5% DMSO were added to wells A1-C1, A2-C2, F1-H1, and F2-H2. A 10 μl aliquot of a 10 mM solution in DMSO of each compound was diluted in 190 μl of assay buffer. The plate with these compound dilutions was then mixed for 15 min on a shaker and a 5 μl aliquot from each well was added to the […]. This was followed by 10 μl of HSD II enzyme ( 1/15 dilution)/estradiol mix in assay buffer containing 1% Triton X-100. The estradiol […] from a 20 mM estradiol DMSO stock solution, which was diluted 1/20 (50 μl/ml) in 50 mM Hepes buffer containing 1% Triton X-100. All wells, except F1-H1 and F2-H2, also received 10 μl of 25 mg/ml NAD (SIGMA) in 100 mM Hepes, pH 9. The blank wells F1-H1 and F2-H2 received 10 μl of NAD buffer. 20 μl of PMS:MTS solution (100 μl PMS into 1800 μl MTS, Promega) was added to all wells. The plate was covered with aluminum foil and incubated at room temperature for 1.5 h. The plate was analyzed at 490 nm on a Hewlett Pachard 8453 spectrophotometer and results were calculated.

[2] = read-out: IC50 values ≧2 μM and <10 μM

Compound: C#Cc1ccc([C@@H](O)[C@H]2[C@@H](c3ccccc3)CC(=O)N2C)s1 (relative stereo) [Example 23, (±)-(4R*,5R*)-5-[(1S*)(5-ethynyl(2-thienyl))hydroxymethyl]-1-methyl-4-phenylpyrrolidin-2-one]
- IC50 [1]: < 500 nM
- melting point: 187 °C

Compound: CN1C(=O)C[C@H](c2ccccc2)[C@@H]1[C@H](O)c1ccc(-c2ccc[n+]([O-])c2)s1 [Example 26, (4R,5R)-5-{(S)-hydroxy[5-(1-oxido-3-pyridinyl)-2-thienyl]methyl}-1-methyl-4-phenyl 2-pyrrolidinone]
- IC50 [1]: < 500 nM
- melting point: 138 to 140 °C

Compound: CN1C(=O)CC(c2ccccc2)C1C(O)c1ccc(-c2ccc(C(F)(F)F)cc2)s1 (stereo not drawn) [Example 32]
- IC50 [1, 2]: 2000 to 10000 nM
- melting point: 206 °C

Compound: CN1C(=O)CC(c2ccccc2)C1C(O)c1ccc(S(=O)(=O)N2CCOCC2)s1 (stereo not drawn) [Example 36]
- IC50 [1]: < 500 nM
- melting point: 214 to 218 °C

Compound: CN1C(=O)CC(c2ccccc2)C1C(O)c1ccc(-c2ccc(-c3ccccc3)c(F)c2)s1 (stereo not drawn) [Example 47]
- IC50 [1, 2]: 2000 to 10000 nM
- melting point: 170 °C

Compound: CN1C(=O)CC(c2ccccc2)C1C(O)c1ccc(-c2ccccn2)s1 (stereo not drawn) [Example 50]
- IC50 [1]: < 500 nM
- melting point: 234 °C (dec.)

Compound: CN1C(=O)CC(c2ccccc2)C1C(O)c1ccc(-c2ccc(O)cc2)s1 (stereo not drawn) [Example 52]
- IC50 [1]: < 500 nM
- melting point: 184 to 186 °C (dec.)

Compound: CN1C(=O)CC(c2ccccc2)C1C(O)c1ccc(CCc2ccc(F)cc2)s1 (stereo not drawn) [Example 57]
- IC50 [1]: < 500 nM
- melting point: 123 to 125 °C

Compound: CN1C(=O)CC(c2ccccc2)C1C(O)c1ccc(Sc2ccccc2)s1 (stereo not drawn) [Example 66]
- IC50 [1]: < 500 nM
- melting point: 172 °C

Compound: CN1C(=O)CC(c2ccccc2)C1C(O)c1ccc(-c2cccc(N)c2)s1 (stereo not drawn) [Example 67]
- IC50 [1]: < 500 nM
- melting point: 190 °C

Compound: CN1C(=O)CC(c2ccccc2)C1C(O)c1ccc(-c2ccc(C(=O)O)cc2)s1 (stereo not drawn) [Example 68]
- IC50 [1]: < 500 nM
- melting point: 232 °C (dec.)

Compound: CN1C(=O)CC(c2ccccc2)C1C(O)c1ccc(S(=O)(=O)c2ccccc2)s1 (stereo not drawn) [Example 70]
- IC50 [1]: < 500 nM
- melting point: 247 °C

Compound: CN(C)c1cccc(-c2ccc(C(O)C3C(c4ccccc4)CC(=O)N3C)s2)c1 (stereo not drawn) [Example 74]
- IC50 [1]: < 500 nM
- melting point: 193 °C

Compound: CN1C(=O)CC(c2ccccc2)C1C(O)c1ccc(S(=O)(=O)c2ccc(F)cc2)s1 (stereo not drawn) [Example 76]
- IC50 [1]: < 500 nM
- melting point: 192 °C

Compound: CN1C(=O)CC(c2ccccc2)C1C(O)c1ccc(-c2ccc(C#N)cc2)s1 (stereo not drawn) [Example 80]
- IC50 [1]: < 500 nM
- melting point: 146 °C

Compound: CN1C(=O)CC(c2ccccc2F)C1C(O)c1ccc(-c2ccc(F)cc2)s1 (stereo not drawn) [Example 84]
- IC50 [1]: < 500 nM
- melting point: 178 °C

Compound: COc1cccc(C2CC(=O)N(C)C2C(O)c2ccc(-c3ccc(F)cc3)s2)c1 (stereo not drawn) [Example 87]
- IC50 [1, 2]: 2000 to 10000 nM
- melting point: 172 °C

Compound: COc1ccccc1C1CC(=O)N(C)C1C(O)c1ccc(S(=O)(=O)c2ccc(Cl)cc2)s1 (stereo not drawn) [Example 92]
- IC50 [1]: < 500 nM
- melting point: 220 °C

Compound: CN1C(=O)CC(c2ccccc2)C1C(O)c1ccc(Cl)c(Cl)c1 (stereo not drawn) [Example 99]
- IC50 [1]: < 500 nM
- melting point: 193 to 195 °C

Compound: Cc1ccc(-c2ccc(C(O)C3C(c4ccccc4)CC(=O)N3C)o2)cc1 (stereo not drawn) [Example 115]
- IC50 [1, 2]: 2000 to 10000 nM
- melting point: 187 °C

Compound: CN1C(=O)CC(c2ccccc2)C1C(O)c1ccc(-c2ccccc2)o1 (stereo not drawn) [Example 117]
- IC50 [1, 2]: 2000 to 10000 nM
- melting point: 184 °C

Compound: COc1cccc(-c2ccc(C(O)C3C(c4ccccc4)CC(=O)N3C)o2)c1 (stereo not drawn) [Example 120]
- IC50 [1, 2]: 2000 to 10000 nM
- melting point: 157 °C

Compound: CN1C(=O)CC(c2ccccc2)C1C(O)c1ccc(-c2cccc(F)c2)o1 (stereo not drawn) [Example 122]
- IC50 [1, 2]: 2000 to 10000 nM
- melting point: 180 °C

Compound: CN1C(=O)CC(c2ccccc2)C1C(O)c1ccc(-c2cccc([N+](=O)[O-])c2)o1 (stereo not drawn) [Example 123]
- IC50 [1, 2]: 2000 to 10000 nM
- melting point: 100 °C

Compound: CN1C(=O)CC(c2ccccc2)C1C(O)C#Cc1ccc(F)cc1 (stereo not drawn) [Example 124]
- IC50 [1]: < 500 nM
- melting point: 154 to 156 °C

Compound: CN1C(=O)CC(c2ccccc2)C1C(O)Cc1nc(-c2ccccc2)cs1 (stereo not drawn) [Example 138]
- IC50 [1, 2]: 2000 to 10000 nM
- melting point: 189 °C

Compound: CCO[C@H](c1cccs1)[C@H]1[C@@H](c2ccccc2)CC(=O)N1C [Example 139]
- IC50 [1, 2]: 2000 to 10000 nM
- melting point: 142 to 144 °C

Compound: CN1C(=O)C[C@H](c2ccccc2)[C@@H]1[C@H](OCc1ccccc1)c1cccs1 [Example 140]
- IC50 [1, 2]: 2000 to 10000 nM
- melting point: 129 to 130 °C

Compound: CN1C(=O)C[C@H](c2ccccc2)[C@@H]1[C@H](OCCCc1ccccc1)c1cccs1 [Example 141]
- IC50 [1, 2]: 2000 to 10000 nM
- melting point: 76 to 78 °C

Compound: CO[C@H](c1cccc(Cl)c1)[C@H]1[C@@H](c2ccccc2)CC(=O)N1C [Example 142]
- IC50 [1, 2]: 2000 to 10000 nM
- melting point: 95 to 96 °C

Compound: CN1C(=O)C[C@H](c2ccccc2)[C@@H]1[C@H](O)c1ccc(-c2ccccc2)s1 [Example 145]
- IC50 [1]: < 500 nM
- melting point: 216 °C (dec.)

Compound: CN1C(=O)C[C@H](c2ccccc2F)[C@@H]1[C@H](O)c1cccs1 [Example 150]
- IC50 [1]: < 500 nM
- melting point: 212 °C

Compound: CN1C(=O)C[C@H](c2ccccc2F)[C@@H]1[C@H](O)c1ccc(-c2cccnc2)s1 [Example 151]
- IC50 [1]: < 500 nM
- melting point: 195 to 197 °C

Compound: CN1C(=O)C[C@H](c2ccccc2F)[C@@H]1[C@H](O)c1ccc(-c2ccccn2)s1 [Example 153]
- IC50 [1]: < 500 nM
- melting point: 213 to 215 °C

Compound: CN1C(=O)C[C@H](c2ccccc2F)[C@@H]1[C@H](O)c1cccc(Cl)c1 [Example 154]
- IC50 [1]: < 500 nM
- melting point: 184 to 185 °C

Compound: CN1C(=O)C[C@H](c2ccccc2F)[C@@H]1[C@H](O)c1ccc(-c2cccs2)s1 [Example 155]
- IC50 [1]: < 500 nM
- melting point: 200 to 202 °C
